The values below come from patent US10485800B2, “Mixed lineage kinase inhibitors for HIV/AIDS therapies” (UNIVERSITY OF ROCHESTER, priority 2012, dated 2019).

Like-named read-outs stand apart in the source and are kept apart here.

Data set [1] is described as follows: Standard murine pharmacokinetic model (plasma and brain AUC). Type of data set: in vivo. Particulars: CL57 BL/6 mice, single IV injection 10 mg/kg, brain homogenate. Here is the method:
Several compounds disclosed herein were evaluated in a standard murine pharmacokinetic model. […] Three mice in each group were used for blood and brain collection at each time point. […] The brain of each animal was collected after the final blood collection. The whole tissue was harvested, excised and rinsed by saline, dried by filter paper, and then placed into one tube per tissue per animal. All samples were stored at −20° C. until bioanalysis. Compound concentrations in plasma and brain homogenate were determined using a high performance liquid chromatography/mass spectrometry (HPLC/MS/MS) method (Agilent 1100 series HPLC, AB Inc. API4000 triple-quadrupole with an ESI interface and Analyst 1.4 software). Results in the form of area under the time-versus-concentration curve (AUC) are given below in Table 10.

Another data set deals with MLK3 (Homo sapiens (Human), UniProt Q16584). Briefly: Radiometric filter plate MLK3 assay. Type of data set: biochemical. To be noted: read-out: MK3 IC50. Here is the method: After a twenty minute incubation, the reactions were washed through filter plates and read on a scintillation counter. Results are shown in Table 9 below, in which +++ indicates ≤0.1 μM, ++ indicates >0.1 μM and ≤1 μM, and + indicates >1 μM.
MLK3, sequence (Q16584 whole entry): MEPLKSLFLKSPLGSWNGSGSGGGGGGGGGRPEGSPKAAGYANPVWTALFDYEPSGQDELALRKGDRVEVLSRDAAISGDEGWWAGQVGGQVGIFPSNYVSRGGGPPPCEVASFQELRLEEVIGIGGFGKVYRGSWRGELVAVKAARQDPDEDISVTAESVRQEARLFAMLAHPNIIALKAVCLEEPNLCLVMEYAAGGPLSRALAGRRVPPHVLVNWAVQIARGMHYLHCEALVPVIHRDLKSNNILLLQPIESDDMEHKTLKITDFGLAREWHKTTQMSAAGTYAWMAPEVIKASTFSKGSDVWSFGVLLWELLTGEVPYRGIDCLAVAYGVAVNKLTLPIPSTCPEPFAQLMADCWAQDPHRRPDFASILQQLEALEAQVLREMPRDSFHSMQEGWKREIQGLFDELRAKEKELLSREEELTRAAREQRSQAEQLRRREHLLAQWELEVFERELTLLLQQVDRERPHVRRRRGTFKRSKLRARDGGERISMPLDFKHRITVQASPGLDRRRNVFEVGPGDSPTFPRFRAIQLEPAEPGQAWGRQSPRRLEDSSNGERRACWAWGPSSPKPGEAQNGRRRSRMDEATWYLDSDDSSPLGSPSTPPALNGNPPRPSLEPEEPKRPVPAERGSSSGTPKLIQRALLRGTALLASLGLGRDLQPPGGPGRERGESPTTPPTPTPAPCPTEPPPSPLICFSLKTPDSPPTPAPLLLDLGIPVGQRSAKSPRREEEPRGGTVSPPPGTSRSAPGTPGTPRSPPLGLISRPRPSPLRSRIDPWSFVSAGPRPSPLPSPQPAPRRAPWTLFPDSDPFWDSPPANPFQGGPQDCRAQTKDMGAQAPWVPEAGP

[2] abbreviates: 2 μM cold ATP (Km), 1 μM inactive MKK7b, twenty minute incubation.

As usually defined, the IC50 is the concentration at which inhibition is half-maximal.

Take `COc1cc(-c2cnc3[nH]cc(-c4ccc5[nH]ccc5c4)c3c2)cc(OC)c1OC` [Example 1, 3-(1H-indol-5-yl)-5-(3,4,5-trimethoxyphenyl)-1H-pyrrolo[2,3-b]pyridine]: the “AUC Brain” value in data set [1] is on record as “+ (+ indicates ≥500)”.

For the molecule `Nc1ccc(-c2cnc3[nH]cc(-c4ccc5[nH]ccc5c4)c3c2)cn1` [Example 4, 5-(3-(1H-indol-5-yl)-1H-pyrrolo[2,3-b]pyridin-5-yl)pyridin-2-amine], the “AUC Brain” value in data set [1] is “− (− indicates <500)”. On MLK3 (setting [2]), the IC50 is below 0.1 µM.

Take `Nc1ncc(-c2cnc3[nH]cc(-c4ccc5[nH]ccc5c4)c3c2)cn1` [Example 9, 5-(3-(1H-indol-5-yl)-1H-pyrrolo[2,3-b]pyridin-5-yl)pyrimidin-2-amine]: in data set [1], the “AUC Brain” value is recorded as “+ (+ indicates ≥500)”. Moreover, the IC50 at MLK3 (setting [2]) was below 0.1 µM.

Consider `COc1cc(-c2cnc3[nH]cc(-c4cnc(N)nc4)c3c2)cc(OC)c1OC` [Example 17, 5-(5-(3,4,5-trimethoxyphenyl)-1H-pyrrolo[2,3-b]pyridin-3-yl)pyrimidin-2-amine], for which, in data set [1], the “AUC Brain” value is given as “− (− indicates <500)”. For the same molecule, the IC50 at MLK3 (setting [2]) was below 0.1 µM.

As for `COc1cc(-c2cnc3[nH]cc(-c4ccc(N)nc4)c3c2)cc(OC)c1OC` [Example 18, 5-(5-(3,4,5-trimethoxyphenyl)-1H-pyrrolo[2,3-b]pyridin-3-yl)pyridin-2-amine], the “AUC Brain” value in data set [1] is on record as “− (− indicates <500)”. Moreover, the IC50 on MLK3 (setting [2]) is below 0.1 µM.

With `CN1CCN(Cc2ccc(-c3cnc4[nH]cc(-c5ccc6[nH]ccc6c5)c4c3)cc2)CC1` [Example 32, 3-(1H-indol-5-yl)-5-(4-((4-methylpiperazin-1-yl)methyl)phenyl)-1H-pyrrolo[2,3-b]pyridine], the “AUC Brain” value in data set [1] is “+ (+ indicates ≥500)”.

With `Cc1cc2cc(-c3c[nH]c4ncc(-c5ccc(CN6CCN(C)CC6)cc5)cc34)ccc2[nH]1` [Example 172], the half-maximal inhibitory concentration (IC50) on MLK3 was 0.1 to 1 µM.

`CN1CCN(Cc2ccc(-c3cnc4[nH]cc(-c5ccc6[nH]ncc6c5)c4c3)cc2)CC1` [Example 173]: the IC50 at MLK3 lay within 0.1 to 1 µM.

On to `CN1CCN(Cc2ccc(-c3cnc4[nH]cc(-c5ccc6c(c5)CC(=O)N6)c4c3)cc2)CC1` [Example 174], for which the IC50 at MLK3 is 0.1 to 1 µM.

On to `CN1CCN(Cc2ccc(-c3cnc4[nH]cc(-c5ccc6scnc6c5)c4c3)cc2)CC1` [Example 175], for which the IC50 on MLK3 is 0.1 to 1 µM.

Regarding `Cc1c[nH]c2ccc(-c3c[nH]c4ncc(-c5ccc(CN6CCN(C)CC6)cc5)cc34)cc12` [Example 176], on MLK3, the IC50 lay within 0.1 to 1 µM.

For the molecule `CN1CCN(Cc2ccc(-c3cnc4[nH]cc(-c5ccc6nccc(O)c6c5)c4c3)cc2)CC1` [Example 177], the IC50 on MLK3 (setting [2]) was below 0.1 µM.

`CN1CCN(Cc2ccc(-c3cnc4[nH]cc(-c5ccc6c(O)ccnc6c5)c4c3)cc2)CC1` [Example 178]: the IC50 at MLK3 lay within 0.1 to 1 µM.

Consider `CN1CCN(Cc2ccc(-c3cnc4[nH]cc(-c5ccc6ncccc6c5)c4c3)cc2)CC1` [Example 180], for which the IC50 on MLK3 (setting [2]) was below 0.1 µM.

As for `[2H]c1cc2cc(-c3c[nH]c4ncc(-c5ccc(CN6CCN(C)CC6)cc5)cc34)ccc2[nH]1` [Example 181], on MLK3, the IC50 was below 0.1 µM.

Consider `c1cc2cc(-c3c[nH]c4ncc(-c5ccc(CN6CCOCC6)cc5)cc34)ccc2[nH]1` [Example 184, 4-(4-(3-(1H-indol-5-yl)-1H-pyrrolo[2,3-b]pyridin-5-yl)benzyl)morpholine], for which the IC50 on MLK3 (setting [2]) is below 0.1 µM.

For `FC1(F)CCN(Cc2ccc(-c3cnc4[nH]cc(-c5ccc6[nH]ccc6c5)c4c3)cc2)CC1` [Example 185, 5-(4-((4,4-difluoropiperidin-1-yl)methyl)phenyl)-3-(1H-indol-5-yl)-1H-pyrrolo[2,3-b]pyridine], the IC50 at MLK3 fell in the range of 0.1 to 1 µM.

For the molecule `CC(=O)N1CCN(Cc2ccc(-c3cnc4[nH]cc(-c5ccc6[nH]ccc6c5)c4c3)cc2)CC1C` (stereo not drawn) [Example 188, 1-(4-(4-(3-(1H-indol-5-yl)-1H-pyrrolo[2,3-b]pyridin-5-yl)benzyl)-2-methylpiperazin-1-yl)ethanone], the IC50 on MLK3 (setting [2]) is below 0.1 µM.

In the case of `CC1CN(Cc2ccc(-c3cnc4[nH]cc(-c5ccc6[nH]ccc6c5)c4c3)cc2)CCN1C` (stereo not drawn) [Example 189, 5-(4-((3,4-dimethylpiperazin-1-yl)methyl)phenyl)-3-(1H-indol-5-yl)-1H-pyrrolo[2,3-b]pyridine], the IC50 on MLK3 (setting [2]) is below 0.1 µM.

As to `CC(C)(C)C(=O)N1CCN(Cc2ccc(-c3cnc4[nH]cc(-c5ccc6[nH]ccc6c5)c4c3)cc2)CC1` [Example 191], the IC50 at MLK3 was in the range of 0.1 to 1 µM.

On to `CC(C)(C)CC(=O)N1CCN(Cc2ccc(-c3cnc4[nH]cc(-c5ccc6[nH]ccc6c5)c4c3)cc2)CC1` [Example 192], for which the IC50 at MLK3 (setting [2]) was below 0.1 µM.

On to `CCOC(=O)N1CCN(Cc2ccc(-c3cnc4[nH]cc(-c5ccc6[nH]ccc6c5)c4c3)cc2)CC1` [Example 193], for which, at MLK3 (setting [2]), the IC50 was below 0.1 µM.

As to `COC(=O)N1CCN(Cc2ccc(-c3cnc4[nH]cc(-c5ccc6[nH]ccc6c5)c4c3)cc2)CC1` [Example 194], the 50% inhibitory concentration (IC50) on MLK3 (setting [2]) is below 0.1 µM.

Take `CC(C)C(=O)N1CCN(Cc2ccc(-c3cnc4[nH]cc(-c5ccc6[nH]ccc6c5)c4c3)cc2)CC1` [Example 196]: the IC50 on MLK3 (setting [2]) was below 0.1 µM.

As to `CCC(=O)N1CCN(Cc2ccc(-c3cnc4[nH]cc(-c5ccc6[nH]ccc6c5)c4c3)cc2)CC1` [Example 197], the IC50 on MLK3 (setting [2]) was below 0.1 µM.

On to `COCC(=O)N1CCN(Cc2ccc(-c3cnc4[nH]cc(-c5ccc6[nH]ccc6c5)c4c3)cc2)CC1` [Example 198], for which, on MLK3 (setting [2]), the concentration for half-maximal inhibition (IC50) is below 0.1 µM.

In the case of `CCS(=O)(=O)N1CCN(Cc2ccc(-c3cnc4[nH]cc(-c5ccc6[nH]ccc6c5)c4c3)cc2)CC1` [Example 199], at MLK3 (setting [2]), the IC50 is below 0.1 µM.

`CS(=O)(=O)N1CCN(Cc2ccc(-c3cnc4[nH]cc(-c5ccc6[nH]ccc6c5)c4c3)cc2)CC1` [Example 200]: the IC50 on MLK3 (setting [2]) is below 0.1 µM.

As to `O=C(CCO)N1CCN(Cc2ccc(-c3cnc4[nH]cc(-c5ccc6[nH]ccc6c5)c4c3)cc2)CC1` [Example 201], on MLK3 (setting [2]), the IC50 is below 0.1 µM.

As to `COCCC(=O)N1CCN(Cc2ccc(-c3cnc4[nH]cc(-c5ccc6[nH]ccc6c5)c4c3)cc2)CC1` [Example 202], on MLK3 (setting [2]), the IC50 is below 0.1 µM.

As to `O=C(CC1CC1)N1CCN(Cc2ccc(-c3cnc4[nH]cc(-c5ccc6[nH]ccc6c5)c4c3)cc2)CC1` [Example 203], the IC50 on MLK3 (setting [2]) is below 0.1 µM.

Take `CC(C)CC(=O)N1CCN(Cc2ccc(-c3cnc4[nH]cc(-c5ccc6[nH]ccc6c5)c4c3)cc2)CC1` [Example 204]: on MLK3 (setting [2]), the IC50 is below 0.1 µM.

In the case of `O=C1CCC(C(=O)N2CCN(Cc3ccc(-c4cnc5[nH]cc(-c6ccc7[nH]ccc7c6)c5c4)cc3)CC2)N1` (stereo not drawn) [Example 205], the IC50 on MLK3 (setting [2]) is below 0.1 µM.

Regarding `FC(F)(F)CN1CCN(Cc2ccc(-c3cnc4[nH]cc(-c5ccc6[nH]ccc6c5)c4c3)cc2)CC1` [Example 207, 3-(1H-indol-5-yl)-5-(4-((4-(2,2,2-trifluoroethyl)piperazin-1-yl)methyl)phenyl)-1H-pyrrolo[2,3-b]pyridine], the IC50 on MLK3 lay in the range of 0.1 to 1 µM.

Consider `CN1CCN(Cc2ccc(-c3cnc4[nH]c(=O)n(-c5ccc6[nH]ccc6c5)c4n3)cc2)CC1` [Example 212, 1-(1H-Indol-5-yl)-6-[4-(4-methyl-piperazin-1-ylmethyl)-phenyl]-1,3-dihydro-imidazo[4,5-b]pyrazin-2-one], for which the 50% inhibitory concentration (IC50) at MLK3 was 0.1 to 1 µM.
